Measured values taken from the supplement of paper PMC10307832.

Experiments:
Assay in all cases: relative viability (nuclei count vs DMSO), 5 days (fraction); higher = more cells survive
Adavosertib + Pemetrexed = compound: C=CCn1c(=O)c2cnc(Nc3ccc(N4CCN(C)CC4)cc3)nc2n1-c1cccc(C(C)(C)O)n1 [Adavosertib] + Nc1nc2[nH]cc(CCc3ccc(C(=O)N[C@@H](CCC(=O)O)C(=O)O)cc3)c2c(=O)[nH]1 [Pemetrexed] (partner 0.2 µM)
How it was run: (§1)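 Medians of duplicate plates are given as relative viability. That measure is the nuclei count in treated wells divided by the count in vehicle wells. Counts were taken on 4× images of lung cancer cell lines in 1536-well plates, 5 days after pin-tool dosing the day after seeding with one drug alone or a fixed anchor-drug dose plus five library-drug doses (not always all listed) in √10 steps.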

Nelarabine + Bortezomib = compound: COc1nc(N)nc2c1ncn2[C@@H]1O[C@H](CO)[C@@H](O)[C@@H]1O [Nelarabine] + CC(C)C[C@H](NC(=O)[C@H](Cc1ccccc1)NC(=O)c1cnccn1)B(O)O [Bortezomib] (partner 0.002 µM)
How it was run: as §1

Nelarabine + Dasatinib = compound: COc1nc(N)nc2c1ncn2[C@@H]1O[C@H](CO)[C@@H](O)[C@@H]1O [Nelarabine] + Cc1nc(Nc2ncc(C(=O)Nc3c(C)cccc3Cl)s2)cc(N2CCN(CCO)CC2)n1 [Dasatinib] (partner 0.075 µM)
How it was run: as §1

Nelarabine + Vorinostat = compound: COc1nc(N)nc2c1ncn2[C@@H]1O[C@H](CO)[C@@H](O)[C@@H]1O [Nelarabine] + O=C(CCCCCCC(=O)Nc1ccccc1)NO [Vorinostat] (partner 1 µM)
How it was run: as §1

SW 1573
relative viability (Adavosertib + Pemetrexed; first compound 0.01 µM): 0.871 | relative viability (Adavosertib + Pemetrexed; first compound 0.03162 µM): 0.747 | relative viability (Adavosertib + Pemetrexed; first compound 0.1 µM): 0.912 | relative viability (Adavosertib + Pemetrexed; first compound 0.3162 µM): 0.557 | relative viability (Nelarabine + Bortezomib; first compound 0.01 µM): 1.63 | relative viability (Nelarabine + Bortezomib; first compound 0.03162 µM): 1.12 | relative viability (Nelarabine + Bortezomib; first compound 0.1 µM): 1.18 | relative viability (Nelarabine + Bortezomib; first compound 0.3162 µM): 1.25 | relative viability (Nelarabine + Bortezomib; first compound 1 µM): 1.1 | relative viability (Nelarabine + Dasatinib; first compound 0.01 µM): 0.422 | relative viability (Nelarabine + Dasatinib; first compound 0.03162 µM): 0.453 | relative viability (Nelarabine + Dasatinib; first compound 0.1 µM): 0.394 | relative viability (Nelarabine + Dasatinib; first compound 0.3162 µM): 0.485 | relative viability (Nelarabine + Dasatinib; first compound 1 µM): 0.494 | relative viability (Nelarabine + Vorinostat; first compound 0.01 µM): 1.05 | relative viability (Nelarabine + Vorinostat; first compound 0.03162 µM): 0.81 | relative viability (Nelarabine + Vorinostat; first compound 0.1 µM): 0.806 | relative viability (Nelarabine + Vorinostat; first compound 0.3162 µM): 0.628 | relative viability (Nelarabine + Vorinostat; first compound 1 µM): 0.776

UMC-11
relative viability (Adavosertib + Pemetrexed; first compound 0.01 µM): 0.791 | relative viability (Adavosertib + Pemetrexed; first compound 0.03162 µM): 0.725 | relative viability (Adavosertib + Pemetrexed; first compound 0.1 µM): 0.763 | relative viability (Adavosertib + Pemetrexed; first compound 0.3162 µM): 0.594 | relative viability (Nelarabine + Bortezomib; first compound 0.01 µM): 0.928 | relative viability (Nelarabine + Bortezomib; first compound 0.03162 µM): 0.572 | relative viability (Nelarabine + Bortezomib; first compound 0.1 µM): 0.924 | relative viability (Nelarabine + Bortezomib; first compound 0.3162 µM): 0.816 | relative viability (Nelarabine + Bortezomib; first compound 1 µM): 0.535 | relative viability (Nelarabine + Dasatinib; first compound 0.01 µM): 0.698 | relative viability (Nelarabine + Dasatinib; first compound 0.03162 µM): 0.463 | relative viability (Nelarabine + Dasatinib; first compound 0.1 µM): 0.575 | relative viability (Nelarabine + Dasatinib; first compound 0.3162 µM): 0.541 | relative viability (Nelarabine + Dasatinib; first compound 1 µM): 0.608 | relative viability (Nelarabine + Vorinostat; first compound 0.01 µM): 0.385 | relative viability (Nelarabine + Vorinostat; first compound 0.03162 µM): 0.306 | relative viability (Nelarabine + Vorinostat; first compound 0.1 µM): 0.386 | relative viability (Nelarabine + Vorinostat; first compound 0.3162 µM): 0.371 | relative viability (Nelarabine + Vorinostat; first compound 1 µM): 0.404
